From patent US20140378460A1, “COMPOSITIONS AND METHODS FOR TREATING NEURODEGENERATIVE DISEASE” (COGNITION THERAPEUTICS, INC., priority 2011, published 2014)
Where two headings read alike, the source gives them in different places.

Key:
[1] = biological target: T1, Sigma-1 receptors (UniProt Q60492); settings: cited from earlier work
T1 construct: other: known prior art compounds, published studies

[2] = system: Sigma-1 receptors; settings: known prior art compounds; cited from earlier work
[3] = system: Abeta oligomer-induced membrane trafficking deficits in primary hippocampal neurons; experiment: Membrane trafficking/exocytosis (MTT) assay; assay type: cell-based, rat; settings: for IC50: read-out: Membrane trafficking IC50
Protocol: The methods used to generate the results were as follows in the Membrane Trafficking/Exocytosis (MTT) assay.
Primary hippocampal neurons from E18 Sprague-Dawley rat embryos were plated at optimized concentrations in 384 well plates in NB media (Invitrogen). Neurons were maintained in cultures for 3 weeks, with twice weekly feeding of NB media with N2 supplement (Invitrogen).
A test compound was added to cells at concentrations ranging from 100 uM to 0.001 nM followed by addition of vehicle or Abeta oligomer preparations (3 μM total Abeta protein concentration), and incubated for 1 to 24 hr at 37° C. in 5% CO2. MTT reagent (3-(4,5-dimethylthizaol-2-yl)-2,5diphenyl tetrazolium bromide) (Roche Molecular Biochemicals) was reconstituted in phosphate buffered saline to 5 mg/mL. 10 μl, of MTT labeling reagent is added to each well and incubated at 37° C. for 1 h, then imaged. Exocytosis was assessed by automated microscopy and image processing to quantify the amount of endocytosed and exocytosed formazan.
Each assay plate was formatted so that compounds are tested with and without Abeta oligomer on each plate.

[4] = biological target: T2, sigma-2 receptor (Rattus norvegicus, UniProt Q5U3Y7); set-up: other: known prior art compounds, published studies; settings: cited from earlier work
T2 sequence (Q5U3Y7 1-176): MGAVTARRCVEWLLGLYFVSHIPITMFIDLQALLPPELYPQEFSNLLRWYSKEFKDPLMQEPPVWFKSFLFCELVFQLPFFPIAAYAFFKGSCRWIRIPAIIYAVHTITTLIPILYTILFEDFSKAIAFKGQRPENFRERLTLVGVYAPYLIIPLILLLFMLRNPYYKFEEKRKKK

[5] = system: Abeta oligomer-induced synapse loss in primary hippocampal neurons; experiment: Synapse loss assay; assay type: cell-based, rat; settings: for Block synapse loss: Table 11B
Protocol: In this assay, Abeta oligomers were brought in contact with mature primary neurons in culture and their binding was determined by immunohistochemistry (anti-Abeta antibody) and quantified by image processing. The amount of Abeta in neuronal dendrites is assessed by counting the number of labeled puncta on the neuritis. […] This labeling is associated with synapses, co-localizing with the post-synaptic scaffold protein PSD-95 (Lacor et al., '04). […] The number of synapses can also be quantified in this assay by immunofluorochemistry. Similar procedures for binding assays can be found in the literature. […] Review.
Primary hippocampal neuronal culture was established as in the membrane trafficking assay above. […] Pretreatment with compounds to be tested lasted for 1 hr and addition of Abeta oligomers or no oligomer (vehicle alone) in a final concentration of 70 ul was followed by incubation for an additional 23 hrs.
The plates were then washed 3× with PBS for 5 min each. The plates were blocked at RT for 1 hr in 5% goat serum and 0.5% Triton X-100 in PBS. […] Primary antibodies were incubated overnight at 4° C. The plates were then washed 3× with PBS for 5 min each. […] Secondary antibodies were incubated at RT for 1 hr. The plates were washed once with PBS. DAPI (4′,6-diamidino-2-phenylindole, Invitrogen) was then applied at 0.03 ug/ul and incubated at RT for 5 min, then washed with PBS.

[6] = biological target: Sigma-1 receptors (Homo sapiens, UniProt Q99720); experiment: Sigma-1 competitive radioligand binding, [3H](+)pentazocine, Jurkat cell membranes
Protocol: (§1) Reactions were terminated by rapid filtration through Whatman GF/C filters using a Brandel 12R cell harvester followed by two washes with ice-cold buffer. Radioactivity on the dried filter discs was measured using a liquid scintillation analyzer (Tri-Carb 2900TR; PerkinElmer Life and Analytical Sciences). The displacement curves were plotted and the Ki values of the test ligands for the receptor subtypes were determined using GraphPad Prism (GraphPad Software Inc., San Diego, Calif.). The percentage specific binding was determined by dividing the difference between total bound (disintegrations per minute) and nonspecific bound (disintegrations per minute) by the total bound (disintegrations per minute).

[7] = biological target: T2, sigma-2 receptor; experiment: Sigma-2 competitive radioligand binding, [3H]DTG with 300 nM (+)pentazocine, rat cerebral cortex membranes
Protocol: as §1

[8] = Table 11C, read-out: S1 binding Ki
[9] = Table 11D, read-out: Sigma-1 Receptor Ki
[10] = known prior art compounds, published studies, read-out: Sigma 1 Binding Ki
[11] = Table 11C, known prior art compounds, read-out: Inhibition Abeta oligomer-induced Membrane Trafficking EC50
[12] = dosed prior to Abeta oligomer addition, read-out: EC50 in inhibiting amyloid beta effect in Cell Measured by Membrane Trafficking Assay
[13] = known prior art compounds, published studies, read-out: Sigma 2 Binding Ki
[14] = Table 11C, read-out: S2 binding Ki
[15] = scaffold drawing 245, R' varied, read-out: Membrane Trafficking EC50
[16] = Table 11D, read-out: Sigma-2 Receptor Ki
[17] = Rattus norvegicus, Hippocampal neuron, Table 11C, known prior art compounds, read-out: Inhibition Abeta oligomer-induced Membrane Trafficking EC50
[18] = Sigma 1 Binding Ki (nM), Table 2, own compounds
[19] = Sigma 2 Binding Ki (nM), Table 2, own compounds
[20] = Rattus norvegicus, Hippocampal neuron, dosed prior to Abeta oligomer addition, read-out: EC50 in inhibiting amyloid beta effect in Cell Measured by Membrane Trafficking Assay

Sigma-1 receptors (Homo sapiens, UniProt Q99720), sequence (Q99720 whole entry): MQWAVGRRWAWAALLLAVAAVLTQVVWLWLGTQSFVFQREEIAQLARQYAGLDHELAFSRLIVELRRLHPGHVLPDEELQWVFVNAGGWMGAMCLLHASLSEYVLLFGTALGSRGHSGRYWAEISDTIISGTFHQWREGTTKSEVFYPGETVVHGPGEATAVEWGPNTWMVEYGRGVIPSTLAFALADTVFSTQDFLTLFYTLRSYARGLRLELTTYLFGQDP

c1ccc(CCCCN2CCC(c3ccccc3)CC2)cc1 [PPBP]
Ki [1, 8]: 0.8 nM
Ki [1, 9]: 0.8 nM
Ki [1, 10]: 0.8 nM
Sigma 1 (Type of Activity) [2]: (agonist)
Functional Neuronal Phenotype ([3]; Table 11C): Antagonist
EC50 [3, 11]: 10.9 µM
Functional Neuronal Phenotype ([3]; Table 11D): Antagonist
IC50 ([3]; Table 11D): 10900 nM

COc1cc(CCC(C)NCc2ccc(C(F)(F)F)cc2)ccc1O (single isomer, unassigned; (-)) [(−) enantiomer]
EC50 [3, 12]: 10.9 µM

COc1cc(CCC(C)NCc2ccc(C(F)(F)F)cc2)ccc1O (single isomer, unassigned; (+)) [(+) enantiomer]
EC50 [3, 12]: 5.6 µM

COc1cc(CCC(C)NCc2ccc(C(F)(F)F)cc2)ccc1O (single isomer, unassigned; (+)) [(+) enantiomer of Cpd II]
EC50 ([3]; read-out: EC 50 in screening assay using single concentration of Abeta oligomer): 5.6 µM

CN[C@H]1CC[C@@H](c2ccc(Cl)c(Cl)c2)c2ccccc21 [Sertraline]
Sigma 1 (Type of Activity) [2]: (antagonist)

O=C(OCCN1CCOCC1)C1(c2ccccc2)CCCCC1 [PRE-84]
Sigma 1 (Type of Activity) [2]: (agonist)
Activity in membrane trafficking assay [3]: inactive
Max Inhibition of Abeta (%) [3]: 38%
Functional Neuronal Phenotype ([3]; Table 11C): Inactive
EC50 [3, 11]: > 30 µM
Ki [4, 13]: 13100 nM

CCCN(CCC)CCc1ccc(OC)c(OCCc2ccccc2)c1 [NE-100]
Effect on Abeta oligomer-induced synapse loss [5]: completely eliminated synapse loss

C=CCN1CC[C@]2(C)c3cc(O)ccc3C[C@H]1[C@H]2C [SKF 10,047]
Functional Neuronal Phenotype ([3]; Table 11C): Inactive
EC50 [3, 11]: > 30 µM
Ki [4, 14]: > 10000 nM

COc1cc(CCC(C)NCCC(C)C)ccc1O (stereo not drawn) [Entry 4]
EC50 [3, 15]: > 30 µM

COc1cccc2c1CCCC2CCCN1CCN(C2CCCCC2)CC1 (stereo not drawn) [PB 28]
Max Inhibition of Abeta (%) [3]: 84%
Functional Neuronal Phenotype ([3]; Table 11C): Antagonist
EC50 [3, 11]: 1 µM
Functional Neuronal Phenotype ([3]; Table 11D): Antagonist
IC50 ([3]; Table 11D): 1000 nM
Ki [4, 14]: 0.8 nM
Ki [4, 16]: 0.8 nM
Ki [4, 13]: 0.8 nM

CN(CCc1ccc(Cl)c(Cl)c1)CCN1CCCC1 [BD1008]
Sigma 1 (Type of Activity) [2]: (antagonist)
Functional Neuronal Phenotype ([3]; Table 11C): Antagonist
EC50 [3, 11]: 1.5 µM
Functional Neuronal Phenotype ([3]; Table 11D): Antagonist
IC50 ([3]; Table 11D): 1500 nM
Ki [4, 14]: 8 nM
Ki [4, 16]: 8 nM
Ki [4, 13]: 8 nM

CC(C(O)c1ccc(O)cc1)N1CCC(Cc2ccccc2)CC1 (stereo not drawn) [Ifenprodil]
Max Inhibition of Abeta (%) [3]: 38%
EC50 [3, 17]: > 20 µM
Functional Neuronal Phenotype ([3]; Table 11C): Inactive

CNC(C)CCc1ccc(O)c(OC)c1 (stereo not drawn) [Entry 5]
EC50 [3, 15]: 30 µM

CC12CC3CC(C)(C1)CC(N)(C3)C2 [Memantine, memantine]
inhibition at 28 µM ([3]; Rattus norvegicus, Hippocampal neuron, 28 μM, read-out: Inhibition of oligomer effects): 50%

CCCN(CCC)CCc1ccc(OC)c(OCCc2ccccc2)c1 [NE100]
Ki [1, 10]: 1.1 nM
Sigma 1 (Type of Activity) [2]: (antagonist)
Ki [4, 13]: 170 nM

COc1cc(CCC(C)NCc2ccc(C(F)(F)F)cc2)ccc1O (single isomer, unassigned) [II (+) isomer]
Block synapse loss [5]: 47%
EC50 ([3]; Rattus norvegicus, Hippocampal neuron, Table 11B, read-out: Inhibition Abeta oligomer-induced Membrane Trafficking EC50): 5.6 µM
Functional Neuronal Phenotype ([3]; Table 11B): Antagonist
Ki ([6]; S1 binding Ki (nM), Table 11B): 100 nM
Ki [6, 18]: 100 nM
Ki ([7]; S2 binding Ki (nM), Table 11B): 80 nM
Ki [7, 19]: 52 nM

CC(C)=CC(C[C@H](C)c1ccc(C)cc1)NCC(C)C (stereo partly drawn) [Compound IXa]
Max Inhibition of Abeta (%) [3]: 76%
EC50 [3, 20]: 4.9 µM
Ki [6]: 89 nM
Ki [7]: 21 nM

COc1cc(CCC(C)NCc2ccccc2)ccc1O (stereo not drawn) [Entry 3]
EC50 [3, 15]: 20 µM

Cc1ccccc1NC(=N)Nc1ccccc1C [DTG]
Sigma 1 (Type of Activity) [2]: (agonist)
Max Inhibition of Abeta (%) [3]: 23%
EC50 [3, 17]: > 20 µM
Functional Neuronal Phenotype ([3]; Table 11C): Inactive

CCCN(CCC)CCc1ccc(OC)c(OCCc2ccccc2)c1 [NE 100]
Ki [1, 8]: 1.1 nM
Ki [1, 9]: 1.1 nM
Max Inhibition of Abeta (%) [3]: 98%
Functional Neuronal Phenotype ([3]; Table 11C): Antagonist
EC50 [3, 11]: 1.3 µM
Functional Neuronal Phenotype ([3]; Table 11D): Antagonist
IC50 ([3]; Table 11D): 1300 nM
Ki [4, 14]: 170 nM
Ki [4, 16]: 170 nM

C=CCN1CCC2(C)c3cc(O)ccc3CC1C2C (stereo not drawn) [SFK10047]
Sigma 1 (Type of Activity) [2]: (agonist)
Ki [4, 13]: 39700 nM

Cc1ccc([C@@H](C)CC(CC(C)(C)O)NCC(C)C)cc1 (stereo partly drawn) [Compound IXb]
Max Inhibition of Abeta (%) [3]: 97%
EC50 [3, 20]: 6.9 µM
Ki [6]: 190 nM
Ki [7]: 23 nM

COc1cc(CCC(C)NCc2ccc(C(F)(F)F)cc2)ccc1O (single isomer, unassigned) [II (−) isomer]
Block synapse loss [5]: 0%
Functional Neuronal Phenotype ([3]; Table 11B): Antagonist
Ki ([6]; S1 binding Ki (nM), Table 11B): 46 nM
Ki [6, 18]: 46 nM
Ki ([7]; S2 binding Ki (nM), Table 11B): 63 nM
Ki [7, 19]: 63 nM

COc1cc(CCC(C)NCc2ccc(Cl)cc2)ccc1O (stereo not drawn) [Entry 2]
EC50 [3, 15]: 12 µM

CN1CCN(CCc2ccc(Cl)c(Cl)c2)CC1 [BD1063]
Ki [1, 8]: 8.8 nM
Ki [1, 10]: 8.8 nM
Sigma 1 (Type of Activity) [2]: (antagonist)
Functional Neuronal Phenotype ([3]; Table 11C): Inactive
EC50 [3, 11]: > 30 µM
